# In ChEMBL document CHEMBL4622919, “Hypersonins A-D, Polycyclic Polyprenylated Acylphloroglucinols with a 1,2-seco-Homoadamantane Architecture from Hypericum wilsonii” (J Nat Prod, 2020):
# Tested on: Splenocyte
# Experiment: Immunosuppressive activity in BALB/c mouse splenocytes assessed as reduction in anti-mouse CD3/CD28-induced cell proliferation after 72 hrs by flow cytometric analysis
# Type: functional, cell-based
structure (smiles),measurement,value
COC(=O)[C@]12C[C@H](C(C)(C)O)C(C)(C)[C@H]1C[C@H]1C[C@@](CC=C(C)C)(C2=O)C(O)=C(C(=O)C(C)C)C1(C)C,IC50,8.3 µM
